# Experimental data as given in patent publication US20240382629A1, “HETEROBIVALENT AND HOMOBIVALENT AGENTS TARGETING FIBROBLAST ACTIVATION PROTEIN ALPHA AND/OR PROSTATE-SPECIFIC MEMBRANE ANTIGEN” (The Johns Hopkins University, priority 2021, published 2024).
# Values joined by “and” are separate entries in the source; they are usually repeats but may differ in a detail not shown here. Equal entries are not always repeated.
# How the values were obtained:
# FAP = FAP (Homo sapiens (Human), UniProt Q12884); assay: FAP inhibition assay (recombinant enzyme, Z-Gly-Pro-AMC substrate); type: biochemical; details: Table 3; for Ki: read-out: FAP Ki
# Method: (§1) PSMA binding affinities of the compounds were determined using a competitive inhibition assay as previously reported. […] FAP, prolyl endopeptidase (PREP), and […] (DPPIV) inhibition assays: Recombinant enzymes (FAP, PREP, DPPIV) were purchased from R&D Systems (Minneapolis, MN). […] Z-Gly-Pro-AMC was used as a substrate for FAP and PREP. H-Gly-Pro-AMC was used as a substrate for DPPIV. The recombinant enzyme (0.4 μg/mL) was incubated with varying amounts of the test articles in the presence of the designated substrate (80 μM) for 10 min at room temperature. Fluorescence intensity was measured with 380 nm excitation and 460 nm emission using the Cytation 5 Cell Imaging Multi-Mode Reader (BioTek, Winooski, VT). IC50 and Ki values were obtained using a sigmoidal dose-response function.
# DPPIV = DPPIV (Homo sapiens (Human), UniProt P27487); assay: DPPIV inhibition assay (recombinant enzyme, H-Gly-Pro-AMC substrate); type: biochemical; details: for IC50: Table 3, read-out: DPPIV IC50
# Method: as §1
# PREP = PREP (Homo sapiens (Human), UniProt P48147); assay: PREP inhibition assay (recombinant enzyme, Z-Gly-Pro-AMC substrate); type: biochemical; details: Table 3
# Method: as §1
# [1] = Biodistribution of representative compounds (Example 13), % ID/g in tissues of tumor-bearing mice; type: in vivo, mouse
# [2] = Biodistribution of representative compounds ([^18F]Sri-07-56, [^18F]Sri-07-52, [^18F]JHU1221823, [^18F]FAPI-74), tissue % ID/g with carrier or blocker; type: in vivo, mouse
# Source text: Biodistribution of Representative Compounds
# [3] = 60 min + Blocker cold FAPI-04 10 nmole, sub-heading prints [^18F]JHU1221785
# [4] = 60 min, 20 μCi per mouse, sub-heading prints [^18F]JHU1221785
# Chain of PREP (P48147 whole entry): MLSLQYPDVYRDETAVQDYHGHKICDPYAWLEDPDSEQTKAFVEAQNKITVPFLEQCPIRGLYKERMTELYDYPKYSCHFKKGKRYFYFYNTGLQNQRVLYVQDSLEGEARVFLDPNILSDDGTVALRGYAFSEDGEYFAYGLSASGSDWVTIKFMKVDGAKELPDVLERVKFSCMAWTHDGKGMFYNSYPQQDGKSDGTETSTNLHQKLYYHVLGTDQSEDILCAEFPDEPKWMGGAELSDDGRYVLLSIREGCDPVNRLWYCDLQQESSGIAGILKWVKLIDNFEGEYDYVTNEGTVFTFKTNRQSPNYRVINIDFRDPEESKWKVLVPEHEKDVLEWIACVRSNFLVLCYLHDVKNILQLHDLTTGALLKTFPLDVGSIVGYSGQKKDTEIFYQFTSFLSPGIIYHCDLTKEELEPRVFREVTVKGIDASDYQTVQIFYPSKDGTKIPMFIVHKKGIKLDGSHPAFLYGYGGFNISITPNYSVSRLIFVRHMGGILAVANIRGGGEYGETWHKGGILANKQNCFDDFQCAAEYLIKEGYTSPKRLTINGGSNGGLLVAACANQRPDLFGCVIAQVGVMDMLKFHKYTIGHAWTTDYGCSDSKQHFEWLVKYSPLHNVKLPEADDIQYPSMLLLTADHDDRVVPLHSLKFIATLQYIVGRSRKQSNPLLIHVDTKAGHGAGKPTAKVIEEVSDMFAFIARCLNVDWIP
# Chain of DPPIV (P27487 whole entry): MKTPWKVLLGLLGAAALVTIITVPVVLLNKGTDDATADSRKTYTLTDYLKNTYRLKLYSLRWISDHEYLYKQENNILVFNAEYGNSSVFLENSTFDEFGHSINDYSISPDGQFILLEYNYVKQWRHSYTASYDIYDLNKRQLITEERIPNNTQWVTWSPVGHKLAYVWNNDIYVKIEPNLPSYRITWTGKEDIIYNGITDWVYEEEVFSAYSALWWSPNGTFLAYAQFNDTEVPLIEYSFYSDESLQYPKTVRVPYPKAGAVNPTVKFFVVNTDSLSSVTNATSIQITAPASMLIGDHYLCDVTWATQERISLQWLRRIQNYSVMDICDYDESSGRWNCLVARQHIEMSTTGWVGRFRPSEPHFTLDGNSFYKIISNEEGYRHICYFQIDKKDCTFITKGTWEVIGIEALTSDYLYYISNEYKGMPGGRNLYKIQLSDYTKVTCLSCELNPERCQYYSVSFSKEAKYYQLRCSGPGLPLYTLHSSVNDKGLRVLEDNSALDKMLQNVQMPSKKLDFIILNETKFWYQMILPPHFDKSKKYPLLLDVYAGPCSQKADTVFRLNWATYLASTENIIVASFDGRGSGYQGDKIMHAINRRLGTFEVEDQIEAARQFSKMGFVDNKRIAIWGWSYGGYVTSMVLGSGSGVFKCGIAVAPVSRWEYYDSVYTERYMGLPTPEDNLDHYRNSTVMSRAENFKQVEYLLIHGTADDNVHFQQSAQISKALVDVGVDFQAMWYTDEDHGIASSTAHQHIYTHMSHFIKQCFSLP
# Chain of FAP (Q12884 whole entry): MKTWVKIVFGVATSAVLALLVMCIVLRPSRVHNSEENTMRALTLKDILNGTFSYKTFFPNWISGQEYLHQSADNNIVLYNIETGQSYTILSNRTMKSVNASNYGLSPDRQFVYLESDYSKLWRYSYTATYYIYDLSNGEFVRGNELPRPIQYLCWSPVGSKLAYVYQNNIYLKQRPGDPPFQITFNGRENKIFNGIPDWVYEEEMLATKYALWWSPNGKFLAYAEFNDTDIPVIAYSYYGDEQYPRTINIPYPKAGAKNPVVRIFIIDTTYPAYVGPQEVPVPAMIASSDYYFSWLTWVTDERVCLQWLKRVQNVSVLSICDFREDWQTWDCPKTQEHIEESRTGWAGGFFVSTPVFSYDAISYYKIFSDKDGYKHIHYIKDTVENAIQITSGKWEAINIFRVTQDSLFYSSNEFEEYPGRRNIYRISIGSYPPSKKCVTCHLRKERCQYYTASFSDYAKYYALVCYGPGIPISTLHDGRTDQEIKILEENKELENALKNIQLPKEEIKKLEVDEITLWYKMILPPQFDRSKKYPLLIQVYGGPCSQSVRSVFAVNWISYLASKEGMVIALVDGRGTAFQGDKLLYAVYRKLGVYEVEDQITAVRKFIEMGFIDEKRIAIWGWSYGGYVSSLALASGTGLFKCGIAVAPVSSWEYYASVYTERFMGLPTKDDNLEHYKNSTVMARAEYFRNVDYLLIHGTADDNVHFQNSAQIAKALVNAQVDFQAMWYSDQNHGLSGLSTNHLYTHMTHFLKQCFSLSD
smiles,measurement,setting,value
N#C[C@@H]1C[C@H](F)CN1C(=O)CNC(=O)c1ccnc2ccc(F)cc12 [JHU1220471],IC50,FAP,0.734 nM
same,Ki,FAP,0.147 nM
same,IC50,DPPIV,2530 nM
same,IC50,PREP,11.5 nM
"N#C[C@@H]1CCCN1C(=O)CNC(=O)c1ccnc2ccc(OCCCNC(=O)CCc3cn(CCCC[C@H](NC(=O)c4ccc(F)nc4)C(=O)NCCNC(=O)CCC(C(=O)O)N4CCN(CC(=O)O)CCN(CC(=O)O)CCN(CC(=O)O)CC4)nn3)cc12 (stereo partly drawn) [SB-FAP-11, 2,2′,2″-(10-(1-Carboxy-4-((2-((S)-6-(4-(3-((3-((4-((2-((S)-2-cyanopyrrolidin-1-yl)-2-oxoethyl)carbamoyl)quinolin-6-yl)oxy)propyl)amino)-3-oxopropyl)-1H-1,2,3-triazol-1-yl)-2-(6-fluoronicotinamido)hexanamido)ethyl)amino)-4-oxobutyl)-1,4,7,10-tetraazacyclododecane-1,4,7-triyl)triacetic acid]",IC50,FAP,0.35 nM
same,Ki,FAP,0.07 nM
same,IC50,DPPIV,9480 nM
same,IC50,PREP,510 nM
N#C[C@@H]1CCCN1C(=O)CNC(=O)c1ccnc2ccc(OCCCNC(=O)[C@@H](CC(=O)O)NC(=O)[C@@H](CC(=O)O)NC(=O)c3ccc(F)nc3)cc12 [JHU1221785],IC50,FAP,1.31 nM
same,Ki,FAP,0.26 nM
same,IC50,DPPIV,17700 nM
same,IC50,PREP,86600 nM
N#CC1CCCN1C(=O)CNC(=O)c1ccnc2ccc(OCCCNCC([18F])C(O)C(O)C(O)CO)cc12 (stereo not shown) [[^18F]FAP-FDG],% ID/g Bladder (individual mouse),[1]; [3],1.45 % ID/g and 2.74 % ID/g
same,% ID/g Blood (individual mouse),[1]; [3],0.20 % ID/g and 0.25 % ID/g
same,% ID/g Brain (individual mouse),[1]; [3],4.18 % ID/g and 4.67 % ID/g
same,% ID/g Fat (individual mouse),[1]; [3],0.63 % ID/g and 0.26 % ID/g
same,% ID/g Femur (individual mouse),[1]; [3],1.33 % ID/g and 1.67 % ID/g
same,% ID/g Heart (individual mouse),[1]; [3],11.97 % ID/g and 17.79 % ID/g
same,% ID/g Kidney (individual mouse),[1]; [3],0.95 % ID/g and 0.87 % ID/g
same,% ID/g Large intestine (individual mouse),[1]; [3],3.51 % ID/g and 3.22 % ID/g
same,% ID/g Liver (individual mouse),[1]; [3],0.38 % ID/g and 0.55 % ID/g
same,% ID/g Lung (individual mouse),[1]; [3],2.25 % ID/g and 2.08 % ID/g
same,% ID/g Mean Bladder,[1]; [3],2.10 % ID/g
same,% ID/g Mean Blood,[1]; [3],0.22 % ID/g
same,% ID/g Mean Brain,[1]; [3],4.43 % ID/g
same,% ID/g Mean Fat,[1]; [3],0.44 % ID/g
same,% ID/g Mean Femur,[1]; [3],1.50 % ID/g
same,% ID/g Mean Heart,[1]; [3],14.88 % ID/g
same,% ID/g Mean Kidney,[1]; [3],0.91 % ID/g
same,% ID/g Mean Large intestine,[1]; [3],3.37 % ID/g
same,% ID/g Mean Liver,[1]; [3],0.47 % ID/g
same,% ID/g Mean Lung,[1]; [3],2.17 % ID/g
same,% ID/g Mean Muscle,[1]; [3],6.73 % ID/g
same,% ID/g Mean Pancreas,[1]; [3],1.01 % ID/g
same,% ID/g Mean Salivary gland,[1]; [3],3.76 % ID/g
same,% ID/g Mean Small intestine,[1]; [3],0.77 % ID/g
same,% ID/g Mean Spleen,[1]; [3],1.30 % ID/g
same,% ID/g Mean Stomach,[1]; [3],2.76 % ID/g
same,% ID/g Mean Tumor,[1]; [3],3.65 % ID/g
same,% ID/g Muscle (individual mouse),[1]; [3],6.83 % ID/g and 6.64 % ID/g
same,% ID/g Pancreas (individual mouse),[1]; [3],1.20 % ID/g and 0.82 % ID/g
same,% ID/g Salivery gland (individual mouse),[1]; [3],5.34 % ID/g and 2.19 % ID/g
same,% ID/g Small intestine (individual mouse),[1]; [3],0.61 % ID/g and 0.92 % ID/g
same,% ID/g Spleen (individual mouse),[1]; [3],0.92 % ID/g and 1.68 % ID/g
same,% ID/g Stomach (individual mouse),[1]; [3],3.50 % ID/g and 2.02 % ID/g
same,% ID/g Tumor (individual mouse),[1]; [3],3.33 % ID/g and 3.97 % ID/g
same,% ID/g Bladder (individual mouse),[1]; [4],2.55 % ID/g and 2.49 % ID/g
same,% ID/g Blood (individual mouse),[1]; [4],0.21 % ID/g and 0.25 % ID/g
same,% ID/g Brain (individual mouse),[1]; [4],5.31 % ID/g and 6.18 % ID/g
same,% ID/g Fat (individual mouse),[1]; [4],3.29 % ID/g and 1.13 % ID/g
same,% ID/g Femur (individual mouse),[1]; [4],2.28 % ID/g and 2.68 % ID/g
same,% ID/g Heart (individual mouse),[1]; [4],23.96 % ID/g and 16.00 % ID/g
same,% ID/g Kidney (individual mouse),[1]; [4],1.13 % ID/g and 2.01 % ID/g
same,% ID/g Large intestine (individual mouse),[1]; [4],4.03 % ID/g and 4.32 % ID/g
same,% ID/g Liver (individual mouse),[1]; [4],0.55 % ID/g and 0.70 % ID/g
same,% ID/g Lung (individual mouse),[1]; [4],2.15 % ID/g and 2.85 % ID/g
same,% ID/g Mean Bladder,[1]; [4],2.52 % ID/g
same,% ID/g Mean Blood,[1]; [4],0.23 % ID/g
same,% ID/g Mean Brain,[1]; [4],5.74 % ID/g
same,% ID/g Mean Fat,[1]; [4],2.21 % ID/g
same,% ID/g Mean Femur,[1]; [4],2.48 % ID/g
same,% ID/g Mean Heart,[1]; [4],19.98 % ID/g
same,% ID/g Mean Kidney,[1]; [4],1.57 % ID/g
same,% ID/g Mean Large intestine,[1]; [4],4.17 % ID/g
same,% ID/g Mean Liver,[1]; [4],0.63 % ID/g
same,% ID/g Mean Lung,[1]; [4],2.50 % ID/g
same,% ID/g Mean Muscle,[1]; [4],6.18 % ID/g
same,% ID/g Mean Pancreas,[1]; [4],1.33 % ID/g
same,% ID/g Mean Salivary gland,[1]; [4],5.31 % ID/g
same,% ID/g Mean Small intestine,[1]; [4],1.06 % ID/g
same,% ID/g Mean Spleen,[1]; [4],1.29 % ID/g
same,% ID/g Mean Stomach,[1]; [4],2.72 % ID/g
same,% ID/g Mean Tumor,[1]; [4],5.02 % ID/g
same,% ID/g Muscle (individual mouse),[1]; [4],7.65 % ID/g and 4.71 % ID/g
same,% ID/g Pancreas (individual mouse),[1]; [4],1.25 % ID/g and 1.42 % ID/g
same,% ID/g Salivery gland (individual mouse),[1]; [4],6.70 % ID/g and 3.91 % ID/g
same,% ID/g Small intestine (individual mouse),[1]; [4],1.21 % ID/g and 0.91 % ID/g
same,% ID/g Spleen (individual mouse),[1]; [4],1.20 % ID/g and 1.38 % ID/g
same,% ID/g Stomach (individual mouse),[1]; [4],2.04 % ID/g and 3.39 % ID/g
same,% ID/g Tumor (individual mouse),[1]; [4],4.12 % ID/g and 5.91 % ID/g
"N#C[C@@H]1CC(F)(F)CN1C(=O)CNC(=O)c1ccnc2ccc(OCCCN3CCN(C(=O)CN4CCN(CC(=O)O)CCN(CC(=O)O)CCN(CC(=O)O)CC4)CC3)cc12 [FAPI-04, reference compound]",Ki,DPPIV,800 nM
N#C[C@@H]1CCCN1C(=O)CNC(=O)c1ccnc2ccc(F)cc12 [JHU1220450],IC50,FAP,0.119 nM
same,Ki,FAP,0.0239 nM
same,IC50,DPPIV,> 20000 nM
N#CC1CCCN1C(=O)CNC(=O)c1ccnc2ccc(OCCCNC(=O)CCc3cn(CCC(NC(=O)c4ccc([18F])nc4)C(=O)NCCNC(=O)CN4CCN(CC(=O)O)CCN(CC(=O)O)CCN(CC(=O)O)CC4)nn3)cc12 (stereo not shown) [[^18F]Sri-07-56],Bladder % ID/g Mean,[2],0.99 % ID/g
same,Brain % ID/g Mean,[2],0.22 % ID/g
same,Fat % ID/g Mean,[2],0.89 % ID/g
same,Femur % ID/g Mean,[2],1.32 % ID/g
same,Kidney % ID/g Mean,[2],2.10 % ID/g
same,Large intestine % ID/g Mean,[2],0.93 % ID/g
same,Muscle % ID/g Mean,[2],0.90 % ID/g
same,Pancreas % ID/g Mean,[2],2.18 % ID/g
same,Salivary gland % ID/g Mean,[2],3.55 % ID/g
same,Small intestine % ID/g Mean,[2],1.73 % ID/g
same,Stomach % ID/g Mean,[2],0.86 % ID/g
same,Tumor % ID/g Mean,[2],1.78 % ID/g
same,Bladder % ID/g,[2]; individual mice,0.86 % ID/g and 1.12 % ID/g
same,Brain % ID/g,[2]; individual mice,0.28 % ID/g and 0.16 % ID/g
same,Fat % ID/g,[2]; individual mice,0.38 % ID/g and 1.40 % ID/g
same,Femur % ID/g,[2]; individual mice,1.63 % ID/g and 1.01 % ID/g
same,Kidney % ID/g,[2]; individual mice,2.24 % ID/g and 1.96 % ID/g
same,Large intestine % ID/g,[2]; individual mice,0.90 % ID/g and 0.95 % ID/g
same,Muscle % ID/g,[2]; individual mice,0.74 % ID/g and 1.06 % ID/g
same,Pancreas % ID/g,[2]; individual mice,2.39 % ID/g and 1.96 % ID/g
same,Salivery gland % ID/g,[2]; individual mice,4.40 % ID/g and 2.70 % ID/g
same,Small intestine % ID/g,[2]; individual mice,2.06 % ID/g and 1.40 % ID/g
same,Stomach % ID/g,[2]; individual mice,1.05 % ID/g and 0.67 % ID/g
same,Tumor % ID/g,[2]; individual mice,1.86 % ID/g and 1.70 % ID/g
same,% ID/g Blood (individual mouse),"[1]; 60 min, 2 μCi per mouse",10.48 % ID/g and 7.56 % ID/g
same,% ID/g Heart (individual mouse),"[1]; 60 min, 2 μCi per mouse",4.72 % ID/g and 3.07 % ID/g
same,% ID/g Liver (individual mouse),"[1]; 60 min, 2 μCi per mouse",2.82 % ID/g and 2.25 % ID/g
same,% ID/g Lung (individual mouse),"[1]; 60 min, 2 μCi per mouse",5.06 % ID/g and 3.66 % ID/g
same,% ID/g Mean Blood,"[1]; 60 min, 2 μCi per mouse",9.02 % ID/g
same,% ID/g Mean Heart,"[1]; 60 min, 2 μCi per mouse",3.90 % ID/g
same,% ID/g Mean Liver,"[1]; 60 min, 2 μCi per mouse",2.54 % ID/g
same,% ID/g Mean Lung,"[1]; 60 min, 2 μCi per mouse",4.36 % ID/g
same,% ID/g Mean Spleen,"[1]; 60 min, 2 μCi per mouse",1.91 % ID/g
same,% ID/g Spleen (individual mouse),"[1]; 60 min, 2 μCi per mouse",2.19 % ID/g and 1.64 % ID/g
